Test results from US20090221655A1, “ANTIBACTERIAL AGENTS” (Pitzer, Inc., priority 2006, published 2009).
In brackets after ≈: the same amount, converted by molar mass.

Legend:
Format in all cases: cell-based
S. aureus UC-76 SA-1 = assay: in vitro antibacterial activity (MIC), S. aureus; conditions: Staphylococcus aureus, UC76; strain UC-76 SA-1; MIC = lowest concentration preventing macroscopically visible growth; read-out: in vitro antibacterial activity MIC5 S. aureus UC-76 SA-1
Source text: (§1) The in vitro antibacterial activity of the compounds of the present invention may be assessed by following procedures recommended in (1) National Committee for Clinical Laboratory Standards (January 2003), Methods for dilution antimicrobial tests for bacteria that grow aerobically, Approved Standard (6th ed), M7-A6, NCCLS, Wayne, Pa.; (2) National Committee for Clinical Laboratory Standards (March 2001), Methods for antimicrobial susceptibility testing of anaerobic bacteria, Approved Standard (5th ed), M11-A4, NCCLS, Wayne, Pa.; (3) National Committee for Clinical Laboratory Standards (Jan. 2003), MIC testing supplemental tables, M100-S13 (for use with M7-A6), NCCLS, Wayne, Pa.; and (4) Murray P R, Baron E J, Jorgensen J H, et al. Manual of Clinical Microbiology (8th ed) Washington, D.C.: American Society for Microbiology Press, 2003. The antibacterial activity can be presented in the form of MIC value. The MIC value is the lowest concentration of drug, which prevented macroscopically visible growth under the conditions of the test.

S. pneumoniae SV1 SP-3 = assay: in vitro antibacterial activity (MIC), S. pneumoniae; conditions: Streptococcus pneumoniae, SV1SP3; strain SV1 SP-3; MIC = lowest concentration preventing macroscopically visible growth; read-out: in vitro antibacterial activity MIC5 S. pneumoniae SV1 SP-3
Source text: as §1

E. faecalis MGH-2 EF 1-1 = assay: in vitro antibacterial activity (MIC), E. faecalis; conditions: Enterococcus faecalis, MGH2EF11; strain MGH-2 EF 1-1; MIC = lowest concentration preventing macroscopically visible growth; read-out: in vitro antibacterial activity MIC5 E. faecalis MGH-2 EF 1-1
Source text: as §1

Row | Structure (SMILES) | MIC (S. aureus UC-76 SA-1) [µg/mL] | MIC (S. pneumoniae SV1 SP-3) [µg/mL] | MIC (E. faecalis MGH-2 EF 1-1) [µg/mL]
1 | CCC(=O)NC[C@H]1CN(c2ccc3c(C)noc3c2)C(=O)O1 [Example 2, (S)—N-[3-(3-methyl-benzo[d]isoxazol-6-yl)-2-oxo-oxazolidin-5-ylmethyl]-propionamide] | 2 (≈ 6.59 µM) | 2 (≈ 6.59 µM) | 4 (≈ 13.2 µM)
2 | CNC(=O)[C@H]1CN(c2ccc3c(C)noc3c2)C(=O)O1 [Example 7, (R)-3-(3-methyl-benzo[d]isoxazol-6-yl)-2-oxo-oxazolidine-5-carboxylic acid methylamide] | 4 (≈ 14.5 µM) | 4 (≈ 14.5 µM) | 4 (≈ 14.5 µM)
3 | CC(=O)NC[C@H]1CN(c2ccc3c(C)noc3c2)C(=O)O1 [Example 1, (S)—N-[3-(3-methyl-benzo[d]isoxazol-6-yl)-2-oxo-oxazolidin-5-ylmethyl]-acetamide] | 2 (≈ 6.91 µM) | 1 (≈ 3.46 µM) | 2 (≈ 6.91 µM)
4 | Cc1noc2cc(N3C[C@H](Cn4ccnn4)OC3=O)ccc12 [Example 4, (R)-3-(3-methyl-benzo[d]isoxazol-6-yl)-5-[1,2,3]triazol-1-ylmethyl-oxazolidin-2-one] | 4 (≈ 13.4 µM) | 2 (≈ 6.68 µM) | 4 (≈ 13.4 µM)
5 | CCONC(=O)[C@H]1CN(c2ccc3c(C)noc3c2)C(=O)O1 [Example 9, (R)-3-(3-methyl-benzo[d]isoxazol-6-yl)-2-oxo-oxazolidine-5-carboxylic acid ethoxy-amide] | 4 (≈ 13.1 µM) | 8 (≈ 26.2 µM) | 4 (≈ 13.1 µM)

Results, then the compound that gave them:

Row | MIC (S. aureus UC-76 SA-1) [µg/mL] | MIC (S. pneumoniae SV1 SP-3) [µg/mL] | MIC (E. faecalis MGH-2 EF 1-1) [µg/mL] | Structure (SMILES)
6 | 4 (≈ 13.7 µM) | 8 (≈ 27.5 µM) | 4 (≈ 13.7 µM) | CONC(=O)[C@H]1CN(c2ccc3c(C)noc3c2)C(=O)O1 [Example 8, (R)-3-(3-methyl-benzo[d]isoxazol-6-yl)-2-oxo-oxazolidine-5-carboxylic acid methoxy-amide]
7 | 4 (≈ 13.1 µM) | 2 (≈ 6.55 µM) | 4 (≈ 13.1 µM) | COC(=O)NC[C@H]1CN(c2ccc3c(C)noc3c2)C(=O)O1 [Example 3, (S)-[3-(3-methyl-benzo[d]isoxazol-6-yl)-2-oxo-oxazolidin-5-ylmethyl]-carbamic acid methyl ester]
8 | 4 (≈ 15.3 µM) | 4 (≈ 15.3 µM) | 8 (≈ 30.6 µM) | Cc1noc2cc(N3C[C@H](C(N)=O)OC3=O)ccc12 [Example 6, (R)-3-(3-methyl-benzo[d]isoxazol-6-yl)-2-oxo-oxazolidine-5-carboxylic acid amide]
